System: porcine islets
Test: Static glucose stimulation (SGS): in vitro insulin secretion of porcine islets in culture
Assay type: cell-based
Excerpt: Static glucose stimulation (SGS) is used to assess in vitro function of the porcine islets by exposing them to low and high concentrations of glucose and theophylline. Determination of the in vitro insulin secretory capacity is undertaken on both free islets (after 3 days in culture) and after their subsequent encapsulation.
Keep the cells 3 days in culture before Static Glucose Stimulation (SGS). SGS involves exposure of the cells to low and high concentration of glucose to check insulin production. […]
Islet endocrine function was assessed after 3 days in culture via static glucose stimulation.

[1] = Incubated 24 hrs with 1.0 ug/ml IgF-1

Human Insulin-like Growth Factor I [IgF-1]
Insulin secretion in response to 19.4 mM Glucose + 10 mM Theophylline, increase compared to control (3 days post IgF-1 exposure): 1.5-fold increase | Insulin secretion in response to 19.4 mM Glucose + 10 mM Theophylline, increase compared to control (14 days post IgF-1 exposure): 1.3-fold increase | Concentration in culture sufficient to produce optimal insulin secretion during glucose challenge (IgF-1 tested at 0.1 and 1.0 ug/ml): 0.1 µg/mL | Insulin secretion in response to 19.4 mM Glucose + 10 mM Theophylline after 3 days culture post isolation (Incubated 24 hrs with 0.1 ug/ml IgF-1, concentration comparison, different islet preparation): 58 uU/hr/100 IEQ | Insulin secretion in response to 19.4 mM Glucose + 10 mM Theophylline after 3 days culture post isolation (Incubated 24 hrs with 0.1 ug/ml IgF-1 after isolation, control 75.2): 236 uU/hr/100 IEQ | Insulin secretion in response to 19.4 mM Glucose + 10 mM Theophylline 7 days post isolation [1]: 57.5 uU/hr/100 IEQ | Insulin secretion in response to 19.4 mM Glucose + 10 mM Theophylline after 3 days culture post isolation [1]: 56.8 uU/hr/100 IEQ | Insulin secretion in response to 19.4 mM Glucose + 10 mM Theophylline after 3 days culture post isolation (Incubated 3 days with 0.1 ug/ml IgF-1 without Nicotinamide, media without nicotinamide alone 55.9): 47.6 uU/hr/100 IEQ | Insulin secretion in response to 19.4 mM Glucose + 10 mM Theophylline 7 days post isolation (Incubated 7 days with 0.1 ug/ml IgF-1): 58 uU/hr/100 IEQ | Increase of insulin response to glucose (porcine islets in culture exposed to IgF-1): ≤ 3 fold | Benefit of culturing the islets beyond a 24 hrs period post isolation (variations on the duration of IgF-1 exposure): no increased benefit

CCN(CC)CC(=O)Nc1c(C)cccc1C [Lignocaine, reference compound]
Increase in insulin secretion in response to glucose challenge (Lignocaine during digestion, after 3 days in culture): 3 fold | Insulin secretion in response to 19.4 mM Glucose + 10 mM Theophyline after 3 days culture post isolation (islets isolated by Collagenase digestion, with or without 1 mM Lignocaine): 163.8 uU/hr/100 IEQ

IgF-2: insulin-like growth factor expressed in many cell types, used in islet culture at 0.1 ug/ml
Effect on insulin production of porcine islet cells (0.1 ug/ml IgF-2, initial exposure of 24 hrs, transient to 3 days post exposure): appeared to increase insulin production | Insulin secretion in response to 19.4 mM Glucose + 10 mM Theophyline after 3 days culture post isolation (Incubated 24 hrs with 0.1 ug/ml IgF-2 day 1, control 75.2): 105.8/100 IEQ | Insulin secretion in response to 19.4 mM Glucose + 10 mM Theophyline after 3 days culture post isolation (Incubated 24 hrs with 0.1 ug/ml IgF-2 day 1, second table, control 39.8): 32 uU/hr/100 IEQ | Insulin secretion in response to 19.4 mM Glucose + 10 mM Theophyline after 7 days culture post isolation (Incubated 7 days with 0.1 ug/ml IgF-2, control 39.8): 38.4 uU/hr/100 IEQ | Effect on insulin production of the islet cells in response to glucose (prolonged exposure to IgF-2 beyond 24 hrs): failed to increase
